Results on twelve molecules are retold here after ChEMBL document CHEMBL4364317, “2-O-(2-chlorobenzoyl) maslinic acid triggers apoptosis in A2780 human ovarian carcinoma cells” (Eur J Med Chem, 2019).

SMILES strings stand for the structures. The source made the active and inactive calls. No cut-off for these calls is given here.

Assay [1] deals with HT-29. As to the kind of experiment: Anticancer activity against human HT-29 cells measured after 96 hrs by sulforhodamine B assay. The settings on record: HT-29, 96 h. The format is functional, cell-based.
The test system of assay [2] is A253 cell line. As to the kind of experiment: Anticancer activity against human A253 cells measured after 96 hrs by sulforhodamine B assay. The following applies: A253, 96 h. It is filed as functional, cell-based.
Assay [3] concerns 8505C. As to the kind of experiment: Anticancer activity against human 8505C cells measured after 96 hrs by sulforhodamine B assay. It is filed as functional, cell-based.
For assay [4], the system named is A2780. Description: Anticancer activity against human A2780 cells measured after 96 hrs by sulforhodamine B assay. The settings on record: A2780, 96 h. The format is functional, cell-based.
Assay [5] has as its system DLD-1. Description: Anticancer activity against human DLD1 cells measured after 96 hrs by sulforhodamine B assay. It is filed as functional, cell-based. The following applies: DLD-1, 96 h.
The test system of assay [6] is NIH3T3. Description: Cytotoxicity against mouse NIH/3T3 cells measured after 96 hrs by sulforhodamine B assay. The settings on record: NIH3T3, 96 h. It is filed as cell-based.
The test system of assay [7] is A549. Description: Anticancer activity against human A549 cells measured after 96 hrs by sulforhodamine B assay. It is filed as functional, cell-based. The settings on record: A549, 96 h.
Assay [8] relates to SW-1736. Description: Anticancer activity against human SW1736 cells measured after 96 hrs by sulforhodamine B assay. The format is functional, cell-based. The settings on record: SW-1736, 96 h.
For assay [9], the system named is 518A2. Description: Anticancer activity against human 518A2 cells measured after 96 hrs by sulforhodamine B assay. The format is functional, cell-based. The following applies: 518A2, 96 h.
The test system of assay [10] is MCF7. As to the kind of experiment: Anticancer activity against human MCF7 cells measured after 96 hrs by sulforhodamine B assay. It is filed as functional, cell-based. The following applies: MCF7, 96 h.
For assay [11], the system named is A2780. As to the kind of experiment: Induction of apoptosis in human A2780 cells assessed as […] cell death at 30 uM measured after 24 to 72 hrs by annexin v flow cytometry analysis. It is filed as functional, cell-based.
In assay [12] the test system is A2780. As to the kind of experiment: Induction of apoptosis in human A2780 cells assessed as loss of cell membrane integrity at 30 uM measured for 72 hrs by acridine orange/propidium iodide staining based fluorescence microscopic analysis. The format is functional.
Assay [13] relates to A2780. As to the kind of experiment: Induction of apoptosis in human A2780 cells assessed as membrane blebbing at 30 uM measured for 72 hrs by acridine orange/propidium iodide staining based fluorescence microscopic analysis. The format is functional, cell-based.
Assay [14] deals with A2780. As to the kind of experiment: Induction of necrosis in human A2780 cells at 30 uM measured for 72 hrs by acridine orange/propidium iodide staining based fluorescence microscopic analysis. It is filed as functional, cell-based.
The test system of assay [15] is A2780. As to the kind of experiment: Induction of apoptosis in human A2780 cells assessed as membrane blebbing at 15 uM measured for 72 hrs by acridine orange/propidium iodide staining based fluorescence microscopic analysis. The format is functional, cell-based.
In assay [16] the test system is A2780. As to the kind of experiment: Induction of apoptosis in human A2780 cells assessed as […] cell death at 15 uM measured after 24 to 72 hrs by annexin v flow cytometry analysis. It is filed as functional, cell-based.
Assay [17] concerns A2780. Description: Induction of necrosis in human A2780 cells at 15 uM measured for 72 hrs by acridine orange/propidium iodide staining based fluorescence microscopic analysis. The format is functional, cell-based.
Assay [18] concerns A2780. Description: Induction of apoptosis in human A2780 cells assessed as loss of cell membrane integrity at 15 uM measured for 72 hrs by acridine orange/propidium iodide staining based fluorescence microscopic analysis. It is filed as functional.

Consider `CC1(C)CC[C@]2(C(=O)O)CC[C@]3(C)C(=CC[C@@H]4[C@@]5(C)C[C@@H](OC(=O)c6ccccc6)[C@H](OC(=O)c6ccccc6)C(C)(C)[C@@H]5CC[C@]43C)[C@@H]2C1`, for which the EC50 in assay [1] was determined as 16.5 µM; in assay [2], 12.7 µM; in assay [3], 16.4 µM; in assay [4], 11.2 µM; in assay [5], 17.9 µM; in [6], 23.2 µM. The EC50 amounted to 17.4 µM in [7] and 19.4 µM in [8].
As to `CC1(C)CC[C@]2(C(=O)O)CC[C@]3(C)C(=CC[C@@H]4[C@@]5(C)C[C@@H](O)[C@H](OC(=O)c6ccccc6Cl)C(C)(C)[C@@H]5CC[C@]43C)[C@@H]2C1`, the EC50 in [2] stood at 5.4 µM; in [3], 6.9 µM; in [9] it was 6.8 µM; in assay [10], 3.3 µM; in assay [5], 5.2 µM; in [6] it was 7.1 µM. Further, the EC50 is 5.8 µM in assay [7] and 12.9 µM in assay [8].
Regarding `CC1(C)CC[C@]2(C(=O)O)CC[C@]3(C)C(=CC[C@@H]4[C@@]5(C)C[C@@H](O)[C@H](OC(=O)c6cc([N+](=O)[O-])cc([N+](=O)[O-])c6)C(C)(C)[C@@H]5CC[C@]43C)[C@@H]2C1`, the EC50 in assay [1] was determined as 9.4 µM; in assay [2] it was 8.3 µM; in assay [3], 7.5 µM; in assay [4], 5.5 µM; in assay [10], 4.2 µM; in [5] it was 7.2 µM. Also, the EC50 in assay [6] is 15.7 µM; in assay [8], 12.8 µM.
Consider `CC1(C)CC[C@]2(C(=O)O)CC[C@]3(C)C(=CC[C@@H]4[C@@]5(C)C[C@@H](OC(=O)c6ccccc6F)[C@H](O)C(C)(C)[C@@H]5CC[C@]43C)[C@@H]2C1`, for which the EC50 in assay [1] was determined as 6.3 µM; in assay [2], 12.9 µM; in assay [3], 12.6 µM; in [9], 11.6 µM; in [4], 6 µM; in [10] it was 7.1 µM. In addition, the EC50 turned out to be 10.7 µM in [5], 16.9 µM in [6], 9.4 µM in assay [7] and 16.9 µM in assay [8].
Consider `CC1(C)CC[C@]2(C(=O)O)CC[C@]3(C)C(=CC[C@@H]4[C@@]5(C)C[C@@H](OC(=O)c6cc([N+](=O)[O-])cc([N+](=O)[O-])c6)[C@H](O)C(C)(C)[C@@H]5CC[C@]43C)[C@@H]2C1`, for which the EC50 in assay [1] worked out at 11.1 µM; in assay [2], 9.7 µM; in [3], 8.1 µM; in assay [9], 12.1 µM; in assay [4] it was 6.2 µM; in [10], 5.1 µM. For the same molecule, the EC50 in [5] came to 7.1 µM; in assay [6] it was 17.4 µM; in assay [7], 6.1 µM; in assay [8] it was 14.8 µM.
`CC1(C)CC[C@]2(C(=O)O)CC[C@]3(C)C(=CC[C@@H]4[C@@]5(C)C[C@@H](OC(=O)c6ccccc6)[C@H](O)C(C)(C)[C@@H]5CC[C@]43C)[C@@H]2C1`: the EC50 was 12.7 µM in assay [1]; 9 µM in assay [2]; 11.2 µM in assay [3]; 15.5 µM in assay [9]; 6.4 µM in assay [4]; 10.3 µM in assay [5]. The 50% effective concentration (EC50) in assay [6] is 15 µM; in [7], 9.1 µM; in assay [8], 18.2 µM.
Take `CC1(C)CC[C@]2(C(=O)O)CC[C@]3(C)C(=CC[C@@H]4[C@@]5(C)C[C@@H](OC(=O)c6cccnc6Cl)[C@H](OC(=O)c6cccnc6Cl)C(C)(C)[C@@H]5CC[C@]43C)[C@@H]2C1`: the EC50 in assay [1] was over 30 µM; in assay [2], over 30 µM; in [3] it was over 30 µM; in assay [9], 17.1 µM; in assay [4], 29.3 µM; in assay [10], over 30 µM. Besides, the EC50 in [5], in assay [6], in assay [7] and in assay [8] was over 30 µM throughout.
With `CC1(C)CC[C@]2(C(=O)O)CC[C@]3(C)C(=CC[C@@H]4[C@@]5(C)C[C@@H](O)[C@H](O)C(C)(C)[C@@H]5CC[C@]43C)[C@@H]2C1` [MASLINIC ACID], the outcome in assay [11], in assay [12], in [13] and in assay [14] was Active. In addition, the EC50 in assay [10] was 24.4 µM; in assay [6], 16.6 µM.
In the case of `CC(=O)O[C@@H]1C[C@]2(C)[C@H]3CC=C4[C@@H]5CC(C)(C)CC[C@]5(C(=O)O)CC[C@@]4(C)[C@]3(C)CC[C@H]2C(C)(C)[C@H]1O`, the EC50 is 10.7 µM in assay [1]; 11 µM in [2]; 8.8 µM in assay [3]; 21 µM in assay [9]; 19.9 µM in [4]; 11.5 µM in assay [10]. Also, the EC50 in assay [5] turned out to be 23.1 µM; in [6], 15.4 µM; in [7], 4.3 µM.
For `CC1(C)CC[C@]2(C(=O)O)CC[C@]3(C)C(=CC[C@@H]4[C@@]5(C)C[C@@H](OC(=O)c6ccccc6Cl)[C@H](O)C(C)(C)[C@@H]5CC[C@]43C)[C@@H]2C1`, the EC50 in assay [1] turned out to be 8.5 µM; in [2] it was 10.4 µM; in assay [3] it was 8.9 µM; in assay [9], 8.3 µM; in [4] it was 4.7 µM; in assay [10] it was 5.6 µM. The EC50 in assay [5] came to 7.6 µM; in [6], 10.4 µM; in assay [7], 7.5 µM; in assay [8] it was 13.9 µM. Moreover, the outcome in assay [15], in assay [16], in assay [17] and in assay [18] was Active.
`CC(=O)O[C@@H]1C[C@]2(C)[C@H]3CC=C4[C@@H]5CC(C)(C)CC[C@]5(C(=O)O)CC[C@@]4(C)[C@]3(C)CC[C@H]2C(C)(C)[C@H]1OC(C)=O`: the EC50 came to 8.5 µM in assay [1]; 7.7 µM in assay [2]; 5.7 µM in assay [3]; 14.6 µM in [9]; 17.3 µM in assay [4]; 8.5 µM in assay [10]. Besides, the EC50 in [5] came to 17 µM; in [6] it was 10.4 µM; in assay [7], 4.2 µM.
Regarding `CC1(C)CC[C@]2(C(=O)O)CC[C@]3(C)C(=CC[C@@H]4[C@@]5(C)C[C@@H](O)[C@H](OC(=O)c6ccccc6F)C(C)(C)[C@@H]5CC[C@]43C)[C@@H]2C1`, the EC50 in assay [2] was determined as 6.6 µM; in assay [3] it was 12.6 µM; in [9], 11.8 µM; in [4], 6 µM; in [10] it was 6.7 µM; in assay [5], 10.1 µM. Moreover, the EC50 in [6] is 12.5 µM; in [7] it was 9.8 µM; in [8], 21.2 µM.
